Measured values published in ChEMBL document CHEMBL1201862, “PubChem BioAssay data set” (2004).
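Step 1: Grow cells in 96-well plates. Step 2: Expose to compound for 48 hours at 5 concentrations. Step 3: Interpolate endpoints linearly; if unreached, use highest concentration. At the GI50, growth is halved.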 Activity calls are given as the source filed them. Rule as the data show it: active = GI50 up to about 1.1 µM and inactive = higher.

Legend:
Assay in all cases: growth of human tumour cells (NCI), 48 h
EKVX = system: EKVX
HCT-116 = system: HCT-116
HOP-62 = system: HOP-62
IGROV-1 = system: IGROV-1
LOX IMVI = system: LOX IMVI
MOLT-4 = system: MOLT-4
Malme-3M = system: Malme-3M
NCI-H23 = system: NCI-H23
NCI-H522 = system: NCI-H522
RPMI-8226 = system: RPMI-8226
SF-268 = system: SF-268
SK-MEL-5 = system: SK-MEL-5
SR = system: SR
SW-620 = system: SW-620
UACC-257 = system: UACC-257
UO-31 = system: UO-31
SK-OV-3 = system: SK-OV-3
A498 = system: A498

SMILES | GI50 (EKVX) | GI50 (HCT-116) | GI50 (HOP-62) | GI50 (IGROV-1) | GI50 (LOX IMVI) | GI50 (MOLT-4) | GI50 (Malme-3M) | GI50 (NCI-H23) | GI50 (NCI-H522) | GI50 (RPMI-8226) | GI50 (SF-268) | GI50 (SK-MEL-5) | GI50 (SR) | GI50 (SW-620) | GI50 (UACC-257) | GI50 (UO-31) | GI50 (SK-OV-3) | GI50 (A498)
CCCCCC[C@@H]1CCC2C(CO)[C@@H](O)CC[C@@H]2C1 (some centres undefined) | 18.2 µM (inactive) | 17.6 µM (inactive) | 18.3 µM (inactive) | 18.2 µM (inactive) | 19.3 µM (inactive) | 18.2 µM (inactive) | 18.8 µM (inactive) | 16 µM (inactive) | 16.3 µM (inactive) | 25.3 µM (inactive) | 18.1 µM (inactive) | 20 µM (inactive) | 22.5 µM (inactive) | 23.1 µM (inactive) | 16.7 µM (inactive) | 20.7 µM (inactive) |  | 
COc1cc2cccc(/N=C\c3ccccc3Cl)c2cc1OC | > 100 µM (inactive) | 80.7 µM (inactive) | > 100 µM (inactive) | > 100 µM (inactive) | 70.3 µM (inactive) | > 100 µM (inactive) | > 100 µM (inactive) | > 100 µM (inactive) | > 100 µM (inactive) | 78.2 µM (inactive) | > 100 µM (inactive) | > 100 µM (inactive) | 3.94 µM (inactive) | 26.5 µM (inactive) | > 100 µM (inactive) | > 100 µM (inactive) | > 100 µM (inactive) | 
Cc1cccc(NC(=O)CSc2nnc(Cc3ccccc3)o2)c1 | > 100 µM (inactive) | > 100 µM (inactive) | > 100 µM (inactive) | > 100 µM (inactive) | > 100 µM (inactive) | > 100 µM (inactive) | > 100 µM (inactive) | > 100 µM (inactive) | > 100 µM (inactive) |  | > 100 µM (inactive) | > 100 µM (inactive) |  | > 100 µM (inactive) | > 100 µM (inactive) | > 100 µM (inactive) | > 100 µM (inactive) | > 100 µM (inactive)
CCN(CC)c1cccc2c1C1(O)CCC3(CC21)OCCCCO3 (centres undefined) |  | 49.3 µM (inactive) | > 100 µM (inactive) | 67.1 µM (inactive) | 50.8 µM (inactive) | > 100 µM (inactive) | > 100 µM (inactive) | > 100 µM (inactive) | > 100 µM (inactive) | 77.6 µM (inactive) | > 100 µM (inactive) | 55.6 µM (inactive) |  | 69.3 µM (inactive) | > 100 µM (inactive) | > 100 µM (inactive) | 71.9 µM (inactive) | 56.2 µM (inactive)
N#CC1(C2CC(=O)N(c3ccccc3)C2=O)CCCCC1=O (centres undefined) | > 100 µM (inactive) |  |  | > 100 µM (inactive) | > 100 µM (inactive) | > 100 µM (inactive) | 0.498 µM (active) | > 100 µM (inactive) |  | > 100 µM (inactive) | > 100 µM (inactive) | > 100 µM (inactive) | > 100 µM (inactive) | > 100 µM (inactive) |  | > 100 µM (inactive) | > 100 µM (inactive) | 
N#Cc1nc(C2OC(COC(=O)c3ccccc3)C(OC(=O)c3ccccc3)C2OC(=O)c2ccccc2)oc1N (centres undefined) | 39.5 µM (inactive) | 16.5 µM (inactive) | > 100 µM (inactive) | > 100 µM (inactive) | 67.1 µM (inactive) | 5.6 µM (inactive) | 84.3 µM (inactive) | 19.1 µM (inactive) | 5.33 µM (inactive) | 2.1 µM (inactive) | 15 µM (inactive) | 14.5 µM (inactive) |  | 12.1 µM (inactive) | 20.7 µM (inactive) | 12 µM (inactive) | > 100 µM (inactive) | > 100 µM (inactive)
C=CCNC(=S)N1CC(C)C(=O)Nc2ccccc21 (centres undefined) | > 100 µM (inactive) | > 100 µM (inactive) | > 100 µM (inactive) | > 100 µM (inactive) | > 100 µM (inactive) | > 100 µM (inactive) | > 100 µM (inactive) | > 100 µM (inactive) | > 100 µM (inactive) | > 100 µM (inactive) | > 100 µM (inactive) | > 100 µM (inactive) | > 100 µM (inactive) | > 100 µM (inactive) |  | > 100 µM (inactive) |  | 
CCOC(=O)C(C(=O)Cc1ccccc1)c1ccccc1 (centres undefined) | > 100 µM (inactive) | > 100 µM (inactive) | > 100 µM (inactive) | > 100 µM (inactive) | > 100 µM (inactive) | 87.9 µM (inactive) | > 100 µM (inactive) | > 100 µM (inactive) | > 100 µM (inactive) | > 100 µM (inactive) | > 100 µM (inactive) | > 100 µM (inactive) | > 100 µM (inactive) | > 100 µM (inactive) | > 100 µM (inactive) | > 100 µM (inactive) | > 100 µM (inactive) | 
CCOC(=O)N1N=NC2C3OC(C[C@@]3(C#N)OC(C)=O)[C@H]21 (some centres undefined) | > 100 µM (inactive) | > 100 µM (inactive) | > 100 µM (inactive) | > 100 µM (inactive) | > 100 µM (inactive) | > 100 µM (inactive) | > 100 µM (inactive) | > 100 µM (inactive) | > 100 µM (inactive) | > 100 µM (inactive) | 51.9 µM (inactive) | > 100 µM (inactive) | > 100 µM (inactive) | > 100 µM (inactive) | > 100 µM (inactive) | > 100 µM (inactive) | > 100 µM (inactive) | 
CCNC(=O)O/N=C1\CCC2[C@@H]3CC=C4C[C@@H](OC5CCCCO5)CC[C@]4(C)C3CC[C@]12C (some centres undefined) | 2.51 µM (inactive) | 4.8 µM (inactive) | 22.3 µM (inactive) | 3.16 µM (inactive) | 1.58 µM (inactive) | 1.61 µM (inactive) | 1.02 µM (active) | 2.72 µM (inactive) | 1.51 µM (inactive) | 1.58 µM (inactive) |  | 2.28 µM (inactive) |  | 2.45 µM (inactive) | 1.61 µM (inactive) | 1.44 µM (inactive) | 5.31 µM (inactive) | 34 µM (inactive)
CC(=O)c1cccc(NC(=O)/C(=N\NC(C)(C)C)c2c(O)c3ccccc3oc2=O)c1 | > 100 µM (inactive) | > 100 µM (inactive) | > 100 µM (inactive) | > 100 µM (inactive) | > 100 µM (inactive) | > 100 µM (inactive) | > 100 µM (inactive) | > 100 µM (inactive) | > 100 µM (inactive) |  | > 100 µM (inactive) | > 100 µM (inactive) | > 100 µM (inactive) | > 100 µM (inactive) | > 100 µM (inactive) | > 100 µM (inactive) | > 100 µM (inactive) | 
O=C(CCCCCCCCC(=O)OCC1OC(n2cnc3c(=O)[nH]cnc32)C(O)C1O)OCC1OC(n2cnc3c(=O)[nH]cnc32)C(O)C1O (centres undefined) | > 100 µM (inactive) | > 100 µM (inactive) | > 100 µM (inactive) | > 100 µM (inactive) | > 100 µM (inactive) | > 100 µM (inactive) | > 100 µM (inactive) | > 100 µM (inactive) | > 100 µM (inactive) | > 100 µM (inactive) | > 100 µM (inactive) | > 100 µM (inactive) |  | > 100 µM (inactive) | > 100 µM (inactive) | > 100 µM (inactive) | > 100 µM (inactive) | > 100 µM (inactive)
COc1cc(C(=O)NO)ccc1O | > 100 µM (inactive) | > 100 µM (inactive) | > 100 µM (inactive) | > 100 µM (inactive) | > 100 µM (inactive) | > 100 µM (inactive) | > 100 µM (inactive) | > 100 µM (inactive) | > 100 µM (inactive) | > 100 µM (inactive) | > 100 µM (inactive) |  |  | > 100 µM (inactive) | > 100 µM (inactive) | > 100 µM (inactive) | > 100 µM (inactive) | > 100 µM (inactive)
COC(=O)C(=O)C(CC(=O)Nc1c(C)cccc1C)C(=O)OC (centres undefined) | > 100 µM (inactive) | > 100 µM (inactive) | > 100 µM (inactive) | > 100 µM (inactive) | > 100 µM (inactive) | > 100 µM (inactive) | > 100 µM (inactive) | > 100 µM (inactive) | > 100 µM (inactive) | > 100 µM (inactive) | > 100 µM (inactive) | > 100 µM (inactive) | > 100 µM (inactive) | > 100 µM (inactive) | > 100 µM (inactive) | > 100 µM (inactive) | > 100 µM (inactive) | 
O=C(CSc1nnc(Cc2ccccc2)o1)Nc1ccc(Cl)cc1Cl |  | > 100 µM (inactive) | > 100 µM (inactive) | > 100 µM (inactive) | > 100 µM (inactive) | > 100 µM (inactive) | > 100 µM (inactive) | > 100 µM (inactive) | > 100 µM (inactive) | > 100 µM (inactive) | > 100 µM (inactive) | > 100 µM (inactive) |  | > 100 µM (inactive) | > 100 µM (inactive) | > 100 µM (inactive) | > 100 µM (inactive) | > 100 µM (inactive)
COc1ccc(C(c2ccccc2C(=O)O)c2ccc(OC)c3ccccc23)c2ccccc12 | 20.2 µM (inactive) |  | 15.5 µM (inactive) | 11.3 µM (inactive) | 18 µM (inactive) | 5.62 µM (inactive) | 13.3 µM (inactive) | > 10 µM (inactive) | 12.6 µM (inactive) | 3.61 µM (inactive) | > 10 µM (inactive) | 15.9 µM (inactive) |  | 14.8 µM (inactive) | 4.85 µM (inactive) | 4.9 µM (inactive) | 23.6 µM (inactive) | 16.2 µM (inactive)
COC(=O)C(Cc1ccccc1)NC(=O)Cn1ccnc1[N+](=O)[O-] (centres undefined) | > 100 µM (inactive) |  | > 100 µM (inactive) | > 100 µM (inactive) | > 100 µM (inactive) | > 100 µM (inactive) | 31.7 µM (inactive) | > 100 µM (inactive) | > 100 µM (inactive) | > 100 µM (inactive) | > 100 µM (inactive) | 96.6 µM (inactive) |  | > 100 µM (inactive) | > 100 µM (inactive) | > 100 µM (inactive) | > 100 µM (inactive) | > 100 µM (inactive)
